Data reported in article PMC10128460, “Discovery of the first-in-class potent and isoform-selective human carbonic anhydrase III inhibitors” (Journal of Enzyme Inhibition and Medicinal Chemistry, 2023).
Values joined by “and” are separate entries in the source; they are usually repeats but may differ in a detail not shown here. Equal values may be shown once. Read-outs that look alike come from different tables or passages of the source.

What was measured:
hCA II = target: T1, hCA II (Homo sapiens, UniProt P00918); experiment: Stopped-Flow CO2 hydrase assay, hCA II; assay type: biochemical; conditions: mean from 3 assays, errors ± 5–10%
T1 construct: made in house
Procedure: (§1) An Applied Photophysics stopped-flow instrument has been used for assaying the CA catalysed CO2 hydration activity[47]. […] The CO2 concentrations ranged from 1.7 to 17 mM for the determination of the kinetic parameters and inhibition constants. […] The uncatalysed rates were determined in the same manner and subtracted from the total observed rates. Stock solutions of inhibitor (0.1 mM) were prepared in distilled − deionized water and dilutions up to 0.01 nM were done thereafter with the assay buffer. Inhibitor and enzyme solutions were preincubated together for 15 min at room temperature before assay to allow for the formation of the E − I complex. The inhibition constants were obtained by nonlinear least-squares methods using PRISM 3 and the Cheng − Prusoff equation, as reported earlier[48]^,[49], and represent the mean from at least three different determinations. […] All hCA isoforms were recombinant ones obtained in-house as reported earlier[50].

hCA VB = target: T2, hCA VB (Homo sapiens, UniProt Q9Y2D0); experiment: Stopped-Flow CO2 hydrase assay, hCA VB; assay type: biochemical; conditions: mean from 3 assays, errors ± 5–10%
T2 construct: made in house
T2 sequence (Q9Y2D0 34-317): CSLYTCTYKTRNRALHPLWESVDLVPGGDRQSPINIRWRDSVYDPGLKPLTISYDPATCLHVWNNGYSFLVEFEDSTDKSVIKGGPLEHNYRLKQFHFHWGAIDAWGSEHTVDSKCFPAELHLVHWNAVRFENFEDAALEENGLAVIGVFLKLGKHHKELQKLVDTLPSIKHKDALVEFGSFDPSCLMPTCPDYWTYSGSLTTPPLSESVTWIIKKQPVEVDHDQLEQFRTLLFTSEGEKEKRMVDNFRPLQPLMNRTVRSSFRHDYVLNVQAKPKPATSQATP
Procedure: as §1

hCA VII = target: T3, hCA VII (Homo sapiens, UniProt P43166); experiment: Stopped-Flow CO2 hydrase assay, hCA VII; assay type: biochemical; conditions: mean from 3 assays, errors ± 5–10%
T3 construct: made in house
T3 sequence (P43166 whole entry): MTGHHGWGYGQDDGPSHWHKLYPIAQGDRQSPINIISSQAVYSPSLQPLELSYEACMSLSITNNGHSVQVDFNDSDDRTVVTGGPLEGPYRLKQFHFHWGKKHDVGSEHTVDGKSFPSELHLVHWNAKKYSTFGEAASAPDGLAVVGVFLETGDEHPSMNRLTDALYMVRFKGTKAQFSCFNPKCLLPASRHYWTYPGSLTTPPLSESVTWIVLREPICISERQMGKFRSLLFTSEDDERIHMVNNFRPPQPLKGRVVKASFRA
Procedure: as §1

hCA XII = target: T4, hCA XII (Homo sapiens, UniProt O43570); experiment: Stopped-Flow CO2 hydrase assay, hCA XII; assay type: biochemical; conditions: mean from 3 assays, errors ± 5–10%
T4 construct: made in house
T4 sequence (O43570 25-354): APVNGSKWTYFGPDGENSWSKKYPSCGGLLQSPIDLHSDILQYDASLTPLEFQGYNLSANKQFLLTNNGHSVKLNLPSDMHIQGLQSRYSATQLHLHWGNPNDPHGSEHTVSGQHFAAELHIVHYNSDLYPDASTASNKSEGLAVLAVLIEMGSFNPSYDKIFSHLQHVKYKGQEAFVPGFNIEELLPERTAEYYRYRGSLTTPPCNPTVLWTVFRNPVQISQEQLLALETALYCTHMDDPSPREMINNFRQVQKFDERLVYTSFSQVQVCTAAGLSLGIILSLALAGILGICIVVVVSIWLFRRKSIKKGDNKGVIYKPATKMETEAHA
Procedure: as §1

hCA IV = target: T5, hCA IV (Homo sapiens, UniProt P22748); experiment: Stopped-Flow CO2 hydrase assay, hCA IV; assay type: biochemical; conditions: mean from 3 assays, errors ± 5–10%
T5 construct: made in house
T5 sequence (P22748 19-312): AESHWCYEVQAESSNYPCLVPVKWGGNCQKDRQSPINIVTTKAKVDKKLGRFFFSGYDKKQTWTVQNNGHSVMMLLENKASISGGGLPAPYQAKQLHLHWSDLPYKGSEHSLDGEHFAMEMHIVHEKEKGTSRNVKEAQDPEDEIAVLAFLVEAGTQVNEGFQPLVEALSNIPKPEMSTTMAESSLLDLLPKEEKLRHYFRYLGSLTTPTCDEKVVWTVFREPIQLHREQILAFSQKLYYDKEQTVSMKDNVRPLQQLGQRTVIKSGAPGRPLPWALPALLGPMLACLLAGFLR
Procedure: as §1

hCA I = target: T6, hCA I (Homo sapiens, UniProt P00915); experiment: Stopped-Flow CO2 hydrase assay, hCA I; assay type: biochemical; conditions: mean from 3 assays, errors ± 5–10%
T6 construct: made in house
T6 sequence (P00915 whole entry): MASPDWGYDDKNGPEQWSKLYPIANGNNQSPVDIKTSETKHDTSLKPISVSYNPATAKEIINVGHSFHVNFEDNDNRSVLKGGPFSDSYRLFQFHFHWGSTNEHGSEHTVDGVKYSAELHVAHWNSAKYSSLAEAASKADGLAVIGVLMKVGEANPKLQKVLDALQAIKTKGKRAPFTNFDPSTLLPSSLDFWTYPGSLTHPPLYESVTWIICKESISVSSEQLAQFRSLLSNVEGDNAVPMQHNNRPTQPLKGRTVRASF
Procedure: as §1

hCA VA = target: T7, hCA VA (Homo sapiens, UniProt P35218); experiment: Stopped-Flow CO2 hydrase assay, hCA VA; assay type: biochemical; conditions: stopped-flow CO2 hydrase, mean from 3 assays, errors ± 5–10%; read-out: KI hCA VA
T7 construct: made in house
T7 sequence (P35218 39-305): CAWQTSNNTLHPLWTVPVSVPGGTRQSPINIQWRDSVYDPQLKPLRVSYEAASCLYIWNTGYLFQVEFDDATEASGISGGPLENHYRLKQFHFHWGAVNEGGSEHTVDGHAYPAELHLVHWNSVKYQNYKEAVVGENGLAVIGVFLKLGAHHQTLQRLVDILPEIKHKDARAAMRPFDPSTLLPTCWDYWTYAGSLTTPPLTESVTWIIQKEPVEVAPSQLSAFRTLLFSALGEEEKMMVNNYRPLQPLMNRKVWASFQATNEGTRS
Procedure: as §1

hCA III [1] = target: T8, hCA III (Homo sapiens, UniProt P07451); experiment: Stopped-Flow CO2 hydrase assay, hCA III; assay type: biochemical; conditions: for Selectivity Index (SI) hCA I/hCA III: ratio of KI hCA I to KI hCA III; for Selectivity Index (SI) hCA II/hCA III: ratio of KI hCA II to KI hCA III; for Ki: stopped-flow CO2 hydrase, mean from 3 assays, errors ± 5–10%
T8 construct: made in house
T8 sequence (P07451 whole entry): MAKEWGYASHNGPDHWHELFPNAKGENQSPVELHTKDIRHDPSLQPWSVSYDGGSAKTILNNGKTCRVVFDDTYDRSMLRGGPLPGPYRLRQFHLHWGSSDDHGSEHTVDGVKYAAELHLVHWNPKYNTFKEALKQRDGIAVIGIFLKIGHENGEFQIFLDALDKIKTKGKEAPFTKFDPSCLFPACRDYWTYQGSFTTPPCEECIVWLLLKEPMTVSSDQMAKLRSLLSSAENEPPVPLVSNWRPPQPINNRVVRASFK
Procedure: as §1

hCA III [2] = target: T8, hCA III; design: method as in PMID 23605884; conditions: HPLC assay; cited from earlier work

Row | SMILES | Ki (hCA II) [µM] | Ki (hCA VB) [µM] | Ki (hCA VII) [µM] | Ki (hCA XII) [µM] | Ki (hCA IV) [µM] | Ki (hCA I) [µM] | Ki (hCA VA) [µM] | melting point [°C] | Selectivity Index (SI) hCA I/hCA III (hCA III [1]) | Selectivity Index (SI) hCA II/hCA III (hCA III [1]) | Ki (hCA III [1]) [µM] | Ki (hCA III [2]) [µM]
1 | NS(=O)(=O)CCCCn1cc(CNC(=O)Nc2ccc(C(F)(F)F)cc2)nn1 [Compound 46, 4–(4-((3–(4-(Trifluoromethyl)phenyl)ureido)methyl)-1H-1,2,3-triazol-1-yl)butane-1-sulfonamide] | 0.879 | 5.87 | 3.61 | 2.63 | 3.59 | 5.39 | 1.8 | > 300 | 9.7 | 1.6 | 0.553 | –
2 | CCOC(=O)c1ccc(NC(=O)NCc2cn(CCCCS(N)(=O)=O)nn2)cc1 [Compound 47, Ethyl 4–(3-((1–(4-sulfamoylbutyl)-1H-1,2,3-triazol-4-yl)methyl)ureido)benzoate] | 0.566 | 1.43 | 1.95 | 2.83 | 2.6 | 6.52 | 3.82 | 259 to 261 | 13.2 | 1.15 and 1.1 | 0.493 | –
3 | COc1cccc(NC(=O)NCc2cn(CCCCS(N)(=O)=O)nn2)c1 [Compound 48, 4–(4-((3–(3-Methoxyphenyl)ureido)methyl)-1H-1,2,3-triazol-1-yl)butane-1-sulfonamide] | 4.61 | 1.14 | 3.9 | 4.66 | > 10 | 5.52 | 4.16 | 217 to 218 | 11.6 | 9.7 | 0.476 | –
4 | COc1cc(C(=O)O)ccc1O [vanillic acid] | – | – | – | – | – | – | – | – | – | – | – | 87
